In patent EP2439195B1, “NAPHTHALENE CARBOXAMIDE DERIVATIVES AS INHIBITORS OF PROTEIN KINASE AND HISTONE DEACETYLASE, PREPARATION METHODS AND USES THEREOF” (Shenzhen Chipscreen Biosciences, Ltd., priority 2009, dated 2010):

Columns and labels:
Assay type in all cases: in vivo
human A549 lung cancer = test: Nude mice tumor transplanted from human A549 lung cancer (Example 51); conditions: 40 mg/kg orally once a day for 24 days
Procedure: Then the cultured A549 human lung cancer cells were implanted into the armpit of 50 mice. […] Each group had 8 mice. One group was treated with vehicle. One group was treated with Sutent, the positive control drug. […] Each group was dosed orally once a day for 24 days. Tumor volumes along with body weights were recorded twice per week. On the next day after 24 doses, the mice were killed, and tumors were weighed. The tumor growth inhibition of each group was calculated using the following formula: {[(the average tumor weight of control group)-(the average tumor weight of test group)]/(the average tumor weight of control group)}×100%.

human HCT-8 colon cancer [1] = test: Nude mice tumor transplanted from human HCT-8 colon cancer (Example 52); conditions: 40 mg/kg orally once a day
Procedure: Female nu/nu mice of 18∼20g were fed by normal diet for 3 days. Then the cultured HCT-8 human colon cancer cells were implanted into the armpit of 50 mice. […] Each group had 8 mice. One group was treated with vehicle. One group was treated with Sutent, the positive control drug. […] Each group was dosed orally once a day for 24 days. Tumor volumes along with body weights were recorded twice per week. On the next day after 20 doses, the mice were killed, and tumors were weighed. The tumor growth inhibition of each group was calculated using the following formula: {[([…])} × 100%. [formula] The experimental results are shown in Table 6 and Figure 2.

[2] = system: SSMC7721 human liver cancer cells; test: Nude mice tumor transplanted from human SSMC7721 liver cancer (Example 53); conditions: 40 mg/kg orally once a day for 24 days
Procedure: Female nu/nu mice of 18∼20g were fed by normal diet for 3 days. Then the cultured SSMC7721 human liver cancer cells were implanted into the armpit of 50 mice. […] One group was treated with vehicle. One group was treated with Sutent, the positive control drug. […] Each group was dosed orally once a day for 24 days. […] The tumor growth inhibition of each group was calculated using the following formula: {[([…])} × 100%. [formula] The experimental results are shown in Table 7 and Figure 3.

human HCT-8 colon cancer [3] = test: Nude mice tumor transplanted from human HCT-8 colon cancer (Example 54); conditions: 40 mg/kg orally once a day for 20 days
Procedure: (§1) Female nu/nu mice of 18∼20g were fed by normal diet for 3 days. Then the cultured HCT-8 human colon cancer cells were implanted into the armpit of 50 mice. […] Each group had 8 mice. One group was treated with vehicle. One group was treated with Sutent, the positive control drug. Two groups were treated with compound 33 at different concentrations. The other two groups were treated with compound 34 at different concentrations. Each group was dosed orally once a day for 20 days. […] The tumor growth inhibition of each group was calculated using the following formula: {[(the average tumor weight of control group)-(the average tumor weight of test group)]/(the average tumor weight of control group)} × 100%. [formula] The experimental results are shown in Table 8 and Figure 4.

[4] = system: human SSMC7721 liver cancer; test: Nude mice tumor transplanted from human SSMC7721 liver cancer (Example 56); conditions: 40 mg/kg orally once a day for 30 days
Procedure: as §1, with “cultured SSMC7721” for “cultured HCT-8”, “human liver” for “human colon”, “compound 37” for “compound 34”, “for 30” for “for 20”, “Table 10” for “Table 8”, “Figure 6. Table10” for “Figure 4.”

Structure (SMILES): CCN(CC)CCNC(=O)c1c(C)[nH]c(/C=C2\C(=O)Nc3ccc(F)cc32)c1C [Sutent, sunitinib, reference compound]
- Tumor weight (human A549 lung cancer): 2.06 ± 0.71 g
- Body weight (g) end (human A549 lung cancer; end): 24.4 ± 2.3 g
- Body weight (g) start (human A549 lung cancer; start): 20.3 ± 1.4 g
- TGI (%) (human A549 lung cancer; tumor growth inhibition): 50.9%
- Body weight (g) end (human HCT-8 colon cancer [1]; end): 22.4 ± 1.1 g
- Tumor weight (human HCT-8 colon cancer [1]; killed after 20 doses): 0.23 ± 0.07 g
- Body weight (g) start (human HCT-8 colon cancer [1]; start): 21.5 ± 0.7 g
- TGI (%) (human HCT-8 colon cancer [1]; tumor growth inhibition): 95.3%
- Tumor weight [2]: 1.00 ± 0.68 g
- Body weight (g) end ([2]; end): 24.8 ± 1.2 g
- Body weight (g) start ([2]; start): 21.0 ± 0.8 g
- TGI (%) ([2]; tumor growth inhibition): 70.3%
- Tumor weight (human HCT-8 colon cancer [3]): 0.44 ± 0.15 g
- Body weight (g) end (human HCT-8 colon cancer [3]; end): 22.1 ± 1.5 g
- Body weight (g) start (human HCT-8 colon cancer [3]; start): 20.6 ± 1.2 g
- TGI (%) (human HCT-8 colon cancer [3]; tumor growth inhibition): 89.1%
- Tumor weight [4]: 0.88 ± 0.39 g
- Body weight (g) end ([4]; end): 24.0 ± 0.6 g
- Body weight (g) start ([4]; start): 21.2 ± 1.1 g
- TGI (%) ([4]; tumor growth inhibition): 61.1%
